Laboratory results taken from the supplement of paper PMC11208160.

Assay: recombinant UMI read abundance after kanamycin selection (control-corrected) (log10(CPM+1)); higher = more efficient recombination; extreme values may be limits of the assay; sequences stand for … in AGTGCAGAGAAAATCGGCCAGTTTTCTCTGCCTGCAGTCCGCATGCCGTGGGACCCCTTGGGTTCTAACCTGTTGCCTAGATTTATGCAGCGGACTGCCTTTCTCCCAAAGTGATAAACCGG…AGGTTGGTTTCACT; site = the 11-nt donor
In short: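 Sequenced counts of recombinant UMIs were turned into CPM, averaged across replicates and scaled with control-derived factors. The reported figure is log10(CPM+1). Those UMIs, each 12 nt long, tagged donor and donor-binding-loop pairs on a plasmid with a promoterless kanamycin gene, screened as a pool in Escherichia coli with IPTG (0.07 mM) plus kanamycin or without selection.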
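Also: IS621 bridge recombinase in Escherichia coli cells against a fixed T5 target plasmid.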

Row | Sequence | recombinant UMI read abundance (log10)
1 | CTTTGGGCATGGACCGGTTTTCCCGGTAATCCGTATTTGCC (site CTTTGGGCTGG) | 0
2 | CTTTTATCATGGACCGGTTTTCCCGGTAATCCGTATTTGAC (site CTAGTATCTGT) | 0.225
3 | CTTTTATCATGGACCGGTTTTCCCGGTAATCCGTATTTGAC (site CTTTTATCTGT) | 0.762
4 | GAAAAACCATGGACCGGTTTTCCCGGTAATCCGTATTTGGT (site GAAAAACCTAC) | 0
5 | GAAAAACCATGGACCGGTTTTCCCGGTAATCCGTATTTGGT (site GACAAACCTAC) | 0
6 | GAAAAACCATGGACCGGTTTTCCCGGTAATCCGTATTTGGT (site GAGAAACCTAC) | 0
7 | GAAAAACCATGGACCGGTTTTCCCGGTAATCCGTATTTGGT (site GATAAACCTAC) | 0
8 | GAAAAGGCATGGACCGGTTTTCCCGGTAATCCGTATTTGTC (site GAAAAGGCTGA) | 2.08
9 | GAAACACCATGGACCGGTTTTCCCGGTAATCCGTATTTGAG (site GAAACACCTCT) | 0.0146
10 | GAAAGCCCATGGACCGGTTTTCCCGGTAATCCGTATTTGAC (site GAAAGCCCTGT) | 0
11 | GAAAGCTCATGGACCGGTTTTCCCGGTAATCCGTATTTGCC (site GAAAGCTCTGG) | 2.75
12 | GAAATCTCATGGACCGGTTTTCCCGGTAATCCGTATTTGCG (site GAAATCTCTCG) | 2.44
13 | GAAATGGCATGGACCGGTTTTCCCGGTAATCCGTATTTGAC (site GAAATGGCTGT) | 1.42
14 | GAACAATCATGGACCGGTTTTCCCGGTAATCCGTATTTGCC (site GAACAATCTGG) | 1.67
15 | GAACCGTCATGGACCGGTTTTCCCGGTAATCCGTATTTGTT (site GAACCGTCTAA) | 1
16 | GAACGAACATGGACCGGTTTTCCCGGTAATCCGTATTTGGT (site GAACGAACTAC) | 1.21
17 | GAACTAGCATGGACCGGTTTTCCCGGTAATCCGTATTTGGT (site CGTTGCCCTTA) | 0.00867
18 | GAACTGGCATGGACCGGTTTTCCCGGTAATCCGTATTTGCT (site GAACTGGCTAG) | 0.00438
19 | GAACTTGCATGGACCGGTTTTCCCGGTAATCCGTATTTGAC (site CTTACCACTAA) | 0.0118
20 | GAAGAGACATGGACCGGTTTTCCCGGTAATCCGTATTTGCT (site GAAGAGACTAG) | 2.79
21 | GAAGATGCATGGACCGGTTTTCCCGGTAATCCGTATTTGTT (site GAAGATACTAA) | 1.88
22 | GAAGATGCATGGACCGGTTTTCCCGGTAATCCGTATTTGTT (site GAAGATCCTAA) | 0.286
23 | GAAGATGCATGGACCGGTTTTCCCGGTAATCCGTATTTGTT (site GAAGATGCTAA) | 2.81

Row | Sequence | recombinant UMI read abundance (log10)
24 | GAAGATGCATGGACCGGTTTTCCCGGTAATCCGTATTTGTT (site GAAGATTCTAA) | 0
25 | GAAGATTCATGGACCGGTTTTCCCGGTAATCCGTATTTGGT (site GAAGATTCTAA) | 0.995
26 | GAAGATTCATGGACCGGTTTTCCCGGTAATCCGTATTTGGT (site GAAGATTCTAC) | 3.05
27 | GAAGATTCATGGACCGGTTTTCCCGGTAATCCGTATTTGGT (site GAAGATTCTAG) | 0
28 | GAAGATTCATGGACCGGTTTTCCCGGTAATCCGTATTTGGT (site GAAGATTCTAT) | 1.82
29 | GAAGATTCATGGACCGGTTTTCCCGGTAATCCGTATTTGTA (site GAAGATTCTAA) | 0.349
30 | GAAGATTCATGGACCGGTTTTCCCGGTAATCCGTATTTGTA (site GAAGATTCTCA) | 1.55
31 | GAAGATTCATGGACCGGTTTTCCCGGTAATCCGTATTTGTA (site GAAGATTCTGA) | 0
32 | GAAGATTCATGGACCGGTTTTCCCGGTAATCCGTATTTGTA (site GAAGATTCTTA) | 2.5
33 | GAAGCAGCATGGACCGGTTTTCCCGGTAATCCGTATTTGCT (site AAAGCAGCTAG) | 1.32
34 | GAAGCAGCATGGACCGGTTTTCCCGGTAATCCGTATTTGCT (site CAAGCAGCTAG) | 1.19
35 | GAAGCAGCATGGACCGGTTTTCCCGGTAATCCGTATTTGCT (site GAAGCAGCTAG) | 2.25
36 | GAAGCAGCATGGACCGGTTTTCCCGGTAATCCGTATTTGCT (site TAAGCAGCTAG) | 2.01
37 | GAAGCGCCATGGACCGGTTTTCCCGGTAATCCGTATTTGTG (site AAAGCGCCTCA) | 0.00334
38 | GAAGCGCCATGGACCGGTTTTCCCGGTAATCCGTATTTGTG (site CAAGCGCCTCA) | 0.00406
39 | GAAGCGCCATGGACCGGTTTTCCCGGTAATCCGTATTTGTG (site GAAGCGCCTCA) | 0.139
40 | GAAGCGCCATGGACCGGTTTTCCCGGTAATCCGTATTTGTG (site TAAGCGCCTCA) | 0.00772
41 | GAAGGGCCATGGACCGGTTTTCCCGGTAATCCGTATTTGTG (site GAAGGGCCTCA) | 0.0149
42 | GAAGGTACATGGACCGGTTTTCCCGGTAATCCGTATTTGAC (site GAAGGTACTGT) | 2.28
43 | GAAGGTACATGGACCGGTTTTCCCGGTAATCCGTATTTGAC (site GCAGGTACTGT) | 0
44 | GAAGGTACATGGACCGGTTTTCCCGGTAATCCGTATTTGAC (site GGAGGTACTGT) | 0
45 | GAAGGTACATGGACCGGTTTTCCCGGTAATCCGTATTTGAC (site GTAGGTACTGT) | 2.16
46 | GAAGTCGCATGGACCGGTTTTCCCGGTAATCCGTATTTGGT (site GAAGTCGCTAC) | 1.34

Row | Sequence | recombinant UMI read abundance (log10)
47 | GAAGTGGCATGGACCGGTTTTCCCGGTAATCCGTATTTGGT (site GAAGTGGCTAC) | 0.489
48 | GAAGTGGCATGGACCGGTTTTCCCGGTAATCCGTATTTGGT (site GCAGTGGCTAC) | 0.177
49 | GAAGTGGCATGGACCGGTTTTCCCGGTAATCCGTATTTGGT (site GGAGTGGCTAC) | 0.113
50 | GAAGTGGCATGGACCGGTTTTCCCGGTAATCCGTATTTGGT (site GTAGTGGCTAC) | 0.882
51 | GAAGTGTCATGGACCGGTTTTCCCGGTAATCCGTATTTGAA (site GAAGTGTCTTT) | 3.13
52 | GAATAGCCATGGACCGGTTTTCCCGGTAATCCGTATTTGCA (site GAATAGCCTTG) | 0.97
53 | GAATAGCCATGGACCGGTTTTCCCGGTAATCCGTATTTGCA (site GAATCGCCTTG) | 0
54 | GAATAGCCATGGACCGGTTTTCCCGGTAATCCGTATTTGCA (site GAATGGCCTTG) | 0.0428
55 | GAATAGCCATGGACCGGTTTTCCCGGTAATCCGTATTTGCA (site GAATTGCCTTG) | 0
56 | GAATGAGCATGGACCGGTTTTCCCGGTAATCCGTATTTGGG (site AAATGAGCTCC) | 0.0126
57 | GAATGAGCATGGACCGGTTTTCCCGGTAATCCGTATTTGGG (site CAATGAGCTCC) | 0.0211
58 | GAATGAGCATGGACCGGTTTTCCCGGTAATCCGTATTTGGG (site GAATGAGCTCC) | 0.261
59 | GAATGAGCATGGACCGGTTTTCCCGGTAATCCGTATTTGGG (site TAATGAGCTCC) | 0.317
60 | GAATGGCCATGGACCGGTTTTCCCGGTAATCCGTATTTGCC (site GAATGGCCTAG) | 0
61 | GAATGGCCATGGACCGGTTTTCCCGGTAATCCGTATTTGCC (site GAATGGCCTCG) | 0.0106
62 | GAATGGCCATGGACCGGTTTTCCCGGTAATCCGTATTTGCC (site GAATGGCCTGG) | 0
63 | GAATGGCCATGGACCGGTTTTCCCGGTAATCCGTATTTGCC (site GAATGGCCTTG) | 0
64 | GAATGGCCATGGACCGGTTTTCCCGGTAATCCGTATTTGCG (site GAATGGCCTAG) | 0
65 | GAATGGCCATGGACCGGTTTTCCCGGTAATCCGTATTTGCG (site GAATGGCCTCG) | 0.0153
66 | GAATGGCCATGGACCGGTTTTCCCGGTAATCCGTATTTGCG (site GAATGGCCTGG) | 0
67 | GAATGGCCATGGACCGGTTTTCCCGGTAATCCGTATTTGCG (site GAATGGCCTTG) | 0
68 | GAATGGCCATGGACCGGTTTTCCCGGTAATCCGTATTTGGA (site GAATGGCCTTA) | 0
